The source of these data is paper PMC7155171, “Probing the Open Global Health Chemical Diversity Library for Multistage-Active Starting Points for Next-Generation Antimalarials” (ACS Infectious Diseases, 2020).

Read-outs that look alike come from different tables or passages of the source. Bounds are passed on as bounds.

The test system of this assay is P. falciparum Dd2 (PfLuc) line expressing firefly luciferase, asexual blood stage. Put plainly: microbe, parasite or virus in culture. Conditions: Plasmodium falciparum. The assay is classed as cell-based, Plasmodium falciparum.
Where [1] appears, read: DD2, 8-pt dose response, 96hr, read-out: P. falciparum Luciferase ABS 8-pt Reconfirmation Dose Response (96hr): IC50.
The mark [2] stands for this setting: DD2, 8-pt dose response, 96hr, read-out: P. falciparum Luciferase ABS 8-pt Reconfirmation Dose Response (96hr): Maximum inhibition (%).
The mark [3] stands for this setting: DD2, read-out: P. falciparum Luciferase ABS 11-pt Reconfirmation Dose Response (48hr): IC50, 11-pt dose response, 48hr.
The mark [4] stands for this setting: DD2, 11-pt dose response, 48hr, read-out: P. falciparum Luciferase ABS 11-pt Reconfirmation Dose Response (48hr): Maximum inhibition (%).
The mark [5] stands for this setting: DD2, 11-pt dose response, 96hr, read-out: P. falciparum Luciferase ABS 11-pt Reconfirmation Dose Response (96hr): IC50.
[6] abbreviates: DD2, 11-pt dose response, 96hr, read-out: P. falciparum Luciferase ABS 11-pt Reconfirmation Dose Response (96hr): Maximum inhibition (%).
The mark [7] stands for this setting: DD2, read-out: CDD P. falciparum Luciferase ABS 11-pt Reconfirmation Dose Response (48hr): IC50 (μM), 11-pt dose response, 48hr.
Setting [8] is: DD2, 8-pt dose response, 96hr, read-out: CDD P. falciparum Luciferase ABS 8-pt Reconfirmation Dose Response (96hr): IC50.
The mark [9] stands for this setting: DD2, 8-pt dose response, 96hr, read-out: CDD P. falciparum Luciferase ABS 8-pt Reconfirmation Dose Response (96hr): Maximum inhibition (%).
[10] abbreviates: DD2, 11-pt dose response, 48hr, read-out: CDD P. falciparum Luciferase ABS 11-pt Reconfirmation Dose Response (48hr): Maximum inhibition (%).
Where [11] appears, read: DD2, 11-pt dose response, 96hr, read-out: CDD P. falciparum Luciferase ABS 11-pt Reconfirmation Dose Response (96hr): IC50.
Where [12] appears, read: DD2, 11-pt dose response, 96hr, read-out: CDD P. falciparum Luciferase ABS 11-pt Reconfirmation Dose Response (96hr): Maximum inhibition (%).

For the compound `O=S(=O)(NC[C@H]1C[C@@H]2CCN1C[C@@H]2CN1CCCC1)c1ccc(Cl)cc1` [DDD01024774], the IC50 under setting [1] amounted to 1.46 µM. In addition, the Emax under setting [2] stood at 91%.
The matching figures for `CN(C[C@H]1CN2CC[C@H]1C[C@@H]2CNC(=O)c1ccco1)c1ccccc1` [DDD01024849]: 1.76 µM and 83.2%.
As for `O=C([C@@H]1Cc2[nH]cnc2CN1Cc1cc2ccccc2o1)N1CCCC1` [DDD01024952], the IC50 under setting [1] came out at 1.42 µM. Further, the Emax under setting [2] is 91%.
On the same counts, the results for `CCC1CN(CC(=O)NCCN2CCCCCC2)c2ccccc2S1` (stereo not shown) [DDD01025851] are 1.73 µM and 82.5%.
The matching figures for `CN1CC[C@H](N(Cc2ccccc2)CC2CC2)C[C@H](O)C1` [DDD01026225]: 1.29 µM and 82%.
The matching figures for `CC(C)n1ncc2c1NC(=O)CC21C(=O)Nc2c(Cl)ccc(Cl)c21` (stereo not shown) [DDD01027128]: 1.59 µM and 94.1%.
Take `CN1CCn2c(-c3cccc(F)c3)cnc2C12CCN(CC1CC1)CC2` [DDD01030549]: under setting [1], the half-inhibitory concentration (IC50) was 1.2 µM. Also, under setting [2], the Emax was 84.4%.
The matching figures for `c1cncc(-c2ccc3c(c2)CCC32CCNCC2)c1` [DDD01031368]: 1.35 µM and 95.6%.
On to `Cc1ccc(CN2CCCC3(CCN(Cc4ccoc4)CC3)C2)cc1` [DDD01031609], for which the IC50 turned out to be 3.17 µM under setting [3], 1.16 µM under setting [1] and 0.742 µM under setting [5]. Moreover, the Emax under setting [2] was determined as 88.7%, the Emax under setting [4] was found to be 88.7% and the Emax under setting [6] came to 98.3%.
With `c1ccc(NC[C@@H]2CCC[C@@H]3CN(Cc4cccnc4)C[C@@H]32)nc1` [DDD01032334], under setting [1], the IC50 is 1.72 µM. Besides, under setting [2], the Emax was 81.5%.
With `COc1cccc(-n2ccc3nc(N4CCCC4)ncc3c2=O)c1` [DDD01034957], the half-inhibitory concentration (IC50) is more than 4.16 µM under setting [3], 1.6 µM under setting [1] and 0.531 µM under setting [5]. In addition, the Emax is 95.4% under setting [2], 13.2% under setting [4] and 98.6% under setting [6].
Turning to `Fc1ccc(Sc2ccccc2CNC2=NCCN2)cc1` [DDD01035542], the half-maximal inhibitory concentration (IC50) under setting [1] turned out to be 1.81 µM. In addition, the Emax under setting [2] was 81.8%.
The matching figures for `Fc1ccccc1Sc1ccccc1CNC1=NCCN1` [DDD01035543]: 1.57 µM and 83.6%.
As for `O=C(Cn1ccc2ccc(Br)cc21)NC[C@@H]1CCCN2CCCC[C@H]12` [DDD01035644], the IC50 under setting [1] came to 2.57 µM. Moreover, under setting [2], the Emax came out at 81.8%.
On to `c1cnc(N2CCC3(CC2)CN(CC2CC2)c2ccccc23)nc1` [DDD01036239], for which the IC50 under setting [1] came out at 1.74 µM. Further, the Emax under setting [2] is 90.6%.
The matching figures for `COc1ccc(CN2CC[C@@H](O)[C@@H]2Cc2ccccc2)cc1` [DDD01037044]: 1.83 µM and 77.4%.
On to `CCc1ccc(-c2cc(C(F)(F)F)nc(N3CCC(N)CC3)n2)cc1` [DDD01037626], for which the IC50 reads like this: under setting [3], 1.86 µM; under setting [1], 1.72 µM; under setting [5], 0.828 µM. Also, the Emax is, setting by setting: under setting [2], 93.8%; under setting [4], 98.9%; under setting [6], 100%.
Consider `Cc1cc(C)n(CCCn2cncc2-c2ccc3c(c2)CC(C)N3C)n1` (stereo not shown) [DDD01056528], for which, under setting [1], the IC50 amounted to 1.7 µM. Further, the Emax under setting [2] came to 94.8%.
The matching figures for `Cc1nn(C)c(C)c1CCn1cncc1-c1ccc2c(c1)CC(C)N2C` (stereo not shown) [DDD01056530]: 1.85 µM and 94.7%.
In the case of `CN(C)CCn1nc(C2CCN(Cc3ccccc3)C2)c2cccnc21` (stereo not shown) [DDD01056665], the IC50 under setting [1] amounted to 1.99 µM. Also, the Emax under setting [2] turned out to be 70.9%.
`Cc1cc(Cc2cccc(C(F)(F)F)c2)cc(C2CCCNC2)n1` (stereo not shown) [DDD01057885]: the IC50 was found to be 4.53 µM under setting [3], 1.24 µM under setting [1] and 0.958 µM under setting [5]. In addition, the Emax is 92% under setting [2] and 100% under setting [6].
On to `COc1cccc(OC)c1CNC(Cc1ccsc1)c1ccc(C)cn1` (stereo not shown) [DDD01058770], for which the IC50 under setting [1] is 1.56 µM.
With `CCn1cncc1CN1CCN(CC2(c3ccc(C)cc3)CC2)CC1` [DDD01059073], the half-maximal inhibitory concentration (IC50) under setting [1] was 1.26 µM. Also, the Emax under setting [2] was found to be 85.6%.
On the same counts, the results for `CN(C(=O)c1ccon1)[C@@H]1CCC[C@@H](Oc2ccccc2)[C@@H]1O` [DDD01059734] are 1.12 µM and 85.7%.
On the same counts, the results for `CN1CCCCC1c1ncc2c(n1)CCN(Cc1ccc(F)cc1)C2` (stereo not shown) [DDD01059924] are 1.65 µM and 84.5%.
On the same counts, the results for `Cc1cc(C)c2cc(CNC3CCCCC3)c3nn(C)c(=O)n3c2c1` [DDD01060652] are 1.15 µM and 88.2%.
In the case of `Cc1cnccc1CN1CC[C@H](Oc2cccc(F)c2)[C@@](C)(O)C1` [DDD01060866], the half-maximal inhibitory concentration (IC50) under setting [1] stood at 1.79 µM. In addition, under setting [2], the Emax was 91.8%.
On the same counts, the results for `CCCOc1ccccc1CN[C@@H]1CCC[C@H]1Cc1cc(C)no1` [DDD01060989] are 2.71 µM and 79.8%.
On the same counts, the results for `COc1cccc([C@H]2CN(C(C)=O)[C@@H]3CCN(Cc4ccsc4)C[C@H]23)c1` [DDD01061089] are 1.31 µM and 82.2%.
For `CCC(CC)(CN)NC(C)c1ccccc1` (stereo not shown) [DDD01061915], the 50% inhibitory concentration (IC50) under setting [7] is more than 12.5 µM, the IC50 under setting [8] is 1.02 µM and the IC50 under setting [11] is more than 1.39 µM. For the same compound, the Emax under setting [9] is 85.9%, the Emax under setting [10] worked out at 49.2% and the Emax under setting [12] was 87.7%.
Turning to `Cn1ccnc1C(O)(CCNCc1ccc(Cl)o1)C(F)(F)F` (stereo not shown) [DDD01062848], the concentration for half-maximal inhibition (IC50) under setting [1] came to 2.81 µM. The Emax under setting [2] came out at 78.7%.
On the same counts, the results for `Clc1cc(CN2CCCN3CCCC3C2)c2ncccc2c1` (stereo not shown) [DDD01063271] are 1.74 µM and 93%.
`Cn1ccnc1CNC1CCCOc2c1ccc1ccccc21` (stereo not shown) [DDD01063614]: under setting [1], the IC50 amounted to 1.52 µM. Also, under setting [2], the Emax was 80.3%.
On the same counts, the results for `CC(O)CN1CCC(CN(C)Cc2cc(F)cc3cccnc23)CC1` (stereo not shown) [DDD01063726] are 1.33 µM and 92.8%.
For the compound `CC(C)(NCc1cccc(O)c1)c1ccc2c(c1)OCO2` [DDD01063924], under setting [1], the IC50 came out at 1.21 µM. For the same compound, the Emax under setting [2] came out at 84.9%.
The matching figures for `CC(NCCc1nccn1Cc1ccccc1)c1cccs1` (stereo not shown) [DDD01065609]: 1.39 µM and 85.7%.
As to `Cc1ccc(C(C)NCCc2nccn2Cc2ccccc2)o1` (stereo not shown) [DDD01065613], under setting [1], the concentration for half-maximal inhibition (IC50) was determined as 1.62 µM. The Emax under setting [2] was found to be 82.8%.
For the compound `CCC(CNC(=O)CNC(C)=O)Oc1cccc(F)c1` (stereo not shown) [DDD01066100], the half-inhibitory concentration (IC50) is, setting by setting: under setting [3], 6.31 µM; under setting [1], 2.09 µM; under setting [5], 2.15 µM. The Emax reads like this: under setting [2], 83.9%; under setting [4], 55.6%; under setting [6], 83.4%.
Consider `CN(C)CCN(Cc1cccnc1)C(=O)c1ccn(-c2ccccc2)n1` [DDD01066387], for which the half-maximal inhibitory concentration (IC50) under setting [1] came to 1.43 µM. Under setting [2], the Emax was determined as 81.1%.
The matching figures for `CCN(C)CC1CCN(S(=O)(=O)c2cc(C)c(F)cc2Cl)C1` (stereo not shown) [DDD01067996]: 1.72 µM and 86.1%.
On the same counts, the results for `CCN1CCC(CNCc2cc(C)ccc2OC)C1` (stereo not shown) [DDD01069824] are 1.26 µM and 90.1%.
The matching figures for `CNS(=O)(=O)c1cccc(C(C)NCc2ccccc2OC)c1` (stereo not shown) [DDD01069885]: 1.18 µM and 80.1%.
In the case of `O=C(CCN1CCCC1c1cccc2c1OCCO2)N1CCCCC1` (stereo not shown) [DDD01070009], the IC50 is, setting by setting: under setting [7], 6.96 µM; under setting [8], 1.06 µM; under setting [11], 2.64 µM. Besides, the Emax is 80.3% under setting [9], 51% under setting [10] and 84.9% under setting [12].
For `CCN(CC1CN(Cc2nc(C3CC3)no2)CCO1)c1cccnn1` (stereo not shown) [DDD01070232], the IC50 under setting [1] was determined as 1.86 µM. Besides, under setting [2], the Emax worked out at 79.6%.
With `Fc1ccc2c(C3=CCN(Cc4nnc(C5CCC5)o4)CC3)c[nH]c2c1` [DDD01071325], the half-maximal inhibitory concentration (IC50) under setting [1] was found to be 1.7 µM. Moreover, the Emax under setting [2] was found to be 88.7%.
For the compound `Cc1cn2c(n1)C(CNCC1=Cc3cc(Cl)ccc3OC1)CCC2` (stereo not shown) [DDD01073229], under setting [1], the 50% inhibitory concentration (IC50) was determined as 1.71 µM.
With `COc1ccccc1C(C)(C)NCc1ccc(C)o1` [DDD01074244], the IC50 under setting [1] was determined as 1.77 µM. Further, the Emax under setting [2] came to 82.7%.
On the same counts, the results for `CC(=O)N(c1ccc(C)cc1)c1nc(CN2CCCC(C)C2)cs1` (stereo not shown) [DDD01075341] are 1.83 µM and 86.4%.
On to `CCC(NCc1ccccc1Cl)c1ccccc1OCC(=O)NC` (stereo not shown) [DDD01075649], for which the concentration for half-maximal inhibition (IC50) was more than 12.5 µM under setting [3], 1.9 µM under setting [1] and 3.66 µM under setting [5]. Moreover, the Emax is 81.7% under setting [2], 57.7% under setting [4] and 86.1% under setting [6].
